41 molecules from US6794386B2, “β-amino acid compounds as integrin antagonists” (Bayer Aktiengesellschaft, priority 2000, dated 2004) can be followed below.

The target of the experiment is T1, VLA-4 (Homo sapiens, UniProt P05556+P13612).
T1 construct: host or cells: Jurkat clone E6-1
The experiment in a line: Adhesion of Jurkat cells to immobilized VCAM-1 (domains 1-3). The experiment is classed as cell-based. More on the design: scale not given here. The settings on record: adhesion of CFSE-labeled Jurkat cells to recombinant human VCAM-1 (domains 1-3) coated plates, compounds as yielded by solid phase synthesis, purity about 40-90%; for pIC50: read-out: IC50. The method, then:
In Vitro Assay: Adhesion of Jurkat Cells to Immobilized VCAM-1 (Domains 1-3).
Preparation of Fluorescence Labeled Jurkat Cells:
Jurkat cells (American Type Culture Collection, Clone E6-1, ATCC TIB-152) were cultured in RPMI 1640 medium (Nikken Bio Medical Laboratory, CM1101) supplemented with 10% fetal bovine serum (Hyclone, A-1119-L), 100 U/ml penicilin (Gibco BRL, 15140-122) and 100 μg/ml streptomycin (Gibco BRL, 15140-122) in a humidified incubator at 37° C. with 5% CO2.
Jurkat cells were incubated with phosphate balanced solution (PBS, Nissui, 05913) containing 25 μM of 5(-and-6)-carboxyfluorescein diacetate, succinimidyle ester (CFSE, Dojindo Laboratories, 345-06441) for 20 min at room temperature while gently swirling every 5 min. After centrifugation at 1000 rpm for 5 min, the cell pellet was resuspended with adhesion assay buffer at a cell density of 2×10^6 cells/ml. The adhesion assay buffer was composed of 24 mM Tris-HCl (pH 7.4), 137 mM NaCl, 27 mM KCl, 4 mM glucose, 0.1% bovine serum albumin (BSA, Sigma, A9647) and 2 mM MnCl2.
Preparation of VCAM-1 (Extracellular Domains 1-3):
Complementary DNA (cDNA) encoding 7-domain form of VCAM-1 (GenBank accession #M60335) was obtained using Rapid-Screen™ cDNA library panels (OriGene Technologies, Inc) at Takara Gene Analysis Center (Shiga, Japan). The primers used were 5′-CCAAGGCAGAGTACGCAAAC-3′ (sence) and 5′-TGGCAGGTATTATTAAGGAG-3′ (antisense). PCR amplification of the 3-domain VCAM-1 cDNA was perform using Pfu DNA polymerase (Stratagene) with the following sets of primers: (U-VCAMd1-3) 5′-CCATATGGTACCTGATCAATTTAAAATCGAGACCACCCCAGAA-3′; (L-VCAMd1-3) 5′-CCATATAGCAATCCTAGGTCCAGGGGAGATCTCAACAGTAAA-3′. PCR cycle was 94° C. for 45 sec, 55° C. for 45 sec, 72° C. for 2 min, repeating 15 cycles. After the purification of the PCR product, the fragment was digested with KpnI-AvrII. The digested fragment was ligated into pBluescript IISK(−) (Strategene), which was linealized by digesting with KpnI-XhoI. The ligation was followed by transformation to a Dam/Dcm methylase-free E. coli strain SCS110 (Strategene) to create the donor plasmid pH7. To direct VCAM-1 molecule into the insect cell secretory pathway, the VCAM-1 coding sequence was fused to signal peptide sequence of honeybee melittin. The resulting melittin-VCAM fusion was placed in correct orientation to the baculoviris polyhedrin promoter. Baculovirus transfer vector containing first 3-domain form VCAM-1 (pH10) was constructed by ligation of 0.9 kb fragment from AvrII/Klenow/BclI digests of pH7 into SalI/Klenow/BamHI digests of pMelBacB (Invitrogen). Recombinant baculovirus was generated by using Bac-N-Blue™ Transfection kit (Invitrogen) according to the manufacture's instruction. The recombinant virus was amplified by infection to High-Five™ insect cells for 5-6 days, and virus titer was determined by plaque assay.
High-Five™ insect cells were pelleted in a 225 ml conical tube by centrifugation at 1000 rpm for 5 min After discarding the supernatant, the pellet was resuspended in 1.5×10^9 pfu (MOI=5) of high-titer virus solution, followed by incubation for 1.5 hours at room temperature. The cells were pelleted again and washed once in fresh Express Five™ serum free medium. The cells were pelleted again and finally, resuspended in 200 ml of fresh Express Five™ medium, transferred to a 1,000 ml shaker flask, and incubated in a shaker at 27° C., 130 rpm, for 48 hours before the culture supernatant was collected. The purification of 3-domain form of VCAM-1 from the culture supernatant was performed by one-step anion exchange chromatography. Protein concentration was determined by using Coomassie protein assay reagent (Pierce) according to the manufacture's instruction.
Preparation of Microtiter Plates:
Recombinant human VCAM-1 (extracellular domains 1-3) was dissolved at 0.5 μg/ml in PBS. […]

SMILES strings stand for the structures. pIC50: −log10 of the molar value. Like-named read-outs stand apart in the source and are kept apart here.

T1 sequence (P13612 34-1032): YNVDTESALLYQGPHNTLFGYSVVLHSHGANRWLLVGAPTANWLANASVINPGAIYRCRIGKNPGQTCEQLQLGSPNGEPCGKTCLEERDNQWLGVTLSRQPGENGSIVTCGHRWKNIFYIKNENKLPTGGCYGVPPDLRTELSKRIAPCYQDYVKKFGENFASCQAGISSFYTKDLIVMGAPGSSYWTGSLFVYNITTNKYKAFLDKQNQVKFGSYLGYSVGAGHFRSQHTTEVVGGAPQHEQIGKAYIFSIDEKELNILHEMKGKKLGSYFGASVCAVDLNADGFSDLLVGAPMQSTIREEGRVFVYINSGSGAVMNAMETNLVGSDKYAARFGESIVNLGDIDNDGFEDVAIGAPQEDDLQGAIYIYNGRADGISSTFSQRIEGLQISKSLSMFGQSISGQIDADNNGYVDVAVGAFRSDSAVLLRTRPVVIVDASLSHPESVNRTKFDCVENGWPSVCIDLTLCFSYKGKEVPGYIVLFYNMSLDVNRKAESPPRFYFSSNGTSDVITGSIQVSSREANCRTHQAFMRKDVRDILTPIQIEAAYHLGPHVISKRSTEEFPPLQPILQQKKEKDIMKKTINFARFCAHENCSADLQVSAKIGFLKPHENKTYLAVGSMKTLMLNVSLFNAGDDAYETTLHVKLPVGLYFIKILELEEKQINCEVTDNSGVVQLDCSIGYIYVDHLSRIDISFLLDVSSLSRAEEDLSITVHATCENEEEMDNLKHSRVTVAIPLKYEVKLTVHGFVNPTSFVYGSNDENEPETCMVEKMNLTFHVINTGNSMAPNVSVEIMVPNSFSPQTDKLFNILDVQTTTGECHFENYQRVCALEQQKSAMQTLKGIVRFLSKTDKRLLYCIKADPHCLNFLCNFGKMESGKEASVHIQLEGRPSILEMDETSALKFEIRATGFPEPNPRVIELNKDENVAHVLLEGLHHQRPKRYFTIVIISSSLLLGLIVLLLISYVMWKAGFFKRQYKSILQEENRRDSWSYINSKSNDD
T1 sequence (P05556 21-798): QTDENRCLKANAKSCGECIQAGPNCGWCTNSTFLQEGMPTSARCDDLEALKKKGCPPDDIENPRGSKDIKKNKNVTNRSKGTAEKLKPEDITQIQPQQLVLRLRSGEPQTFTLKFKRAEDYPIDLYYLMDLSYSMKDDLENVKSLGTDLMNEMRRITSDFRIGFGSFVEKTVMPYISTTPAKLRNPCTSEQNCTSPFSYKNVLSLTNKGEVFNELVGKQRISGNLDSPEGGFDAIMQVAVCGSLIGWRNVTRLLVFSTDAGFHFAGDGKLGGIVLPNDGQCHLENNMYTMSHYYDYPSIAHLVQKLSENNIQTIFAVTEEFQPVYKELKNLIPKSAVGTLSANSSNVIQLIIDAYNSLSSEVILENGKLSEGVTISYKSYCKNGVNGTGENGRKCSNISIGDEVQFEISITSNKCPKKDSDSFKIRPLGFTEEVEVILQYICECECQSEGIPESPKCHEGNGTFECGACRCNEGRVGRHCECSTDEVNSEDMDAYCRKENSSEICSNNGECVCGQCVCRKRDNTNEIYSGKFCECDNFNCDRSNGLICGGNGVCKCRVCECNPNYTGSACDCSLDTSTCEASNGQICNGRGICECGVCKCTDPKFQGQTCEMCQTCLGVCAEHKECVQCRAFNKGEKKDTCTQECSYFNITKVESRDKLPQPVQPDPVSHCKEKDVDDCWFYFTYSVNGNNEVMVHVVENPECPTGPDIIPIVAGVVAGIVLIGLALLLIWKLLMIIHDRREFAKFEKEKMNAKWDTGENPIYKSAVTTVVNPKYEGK

The pIC50 is the negative decadic logarithm of the IC50, by convention in mol/L. For the molecule `Cc1ccccc1-c1ccc(C[C@H](NC(=O)C2CCCN(C(=O)OC3CCCC3)C2)C(=O)O)cc1` (some centres unmarked) [Example 1.39], the pIC50 is 5.70 to 6.30.

As to `O=C(N[C@@H](Cc1ccc(-c2ccc(Cl)cc2Cl)cc1)C(=O)O)C1CCCN(C(=O)Cc2ccccc2)C1` (some centres unmarked) [Example 1.40], the IC50 result was “C-D”. As to `O=C(N[C@@H](Cc1ccc(-c2ccc(Cl)cc2Cl)cc1)C(=O)O)C1CCCN(C(=O)c2cccc(Cl)c2)C1` (some centres unmarked) [Example 1.41], the IC50 entry is “C-D”. On to `Cc1ccc(C(=O)N2CCCC(C(=O)N[C@@H](Cc3ccc(-c4ccc(Cl)cc4Cl)cc3)C(=O)O)C2)cc1` (some centres unmarked) [Example 1.42], for which the IC50 result was “B-C”. Take `O=C(N[C@@H](Cc1ccc(-c2ccc(Cl)cc2Cl)cc1)C(=O)O)C1CCCN(C(=O)c2ccc3c(c2)OCO3)C1` (some centres unmarked) [Example 1.43]: the IC50 result is “C-D”.

With `O=C(N[C@@H](Cc1ccc(-c2ccc(Cl)cc2Cl)cc1)C(=O)O)C1CCCN(C(=O)C2CCCCC2)C1` (some centres unmarked) [Example 1.44], the IC50 result is on record as “C-D”. On the same count and under the same terms, the same measure for `Cc1cc(Cl)c(CC(=O)N2CCCC(C(=O)N[C@@H](Cc3ccc(-c4ccc(Cl)cc4Cl)cc3)C(=O)O)C2)c(Cl)c1` (some centres unmarked) [Example 1.45]: “C-D”. On to `COc1ccccc1C(=O)N1CCCC(C(=O)N[C@@H](Cc2ccc(-c3ccc(Cl)cc3Cl)cc2)C(=O)O)C1` (some centres unmarked) [Example 1.46], for which the pIC50 was 5.00 to 5.70. As to `Cc1cc(C)c(OC(=O)N2CCCC(C(=O)N[C@@H](Cc3ccc(-c4ccc(Cl)cc4Cl)cc3)C(=O)O)C2)c(C)c1` (some centres unmarked) [Example 1.47], the IC50 entry is reported as “C-D”. As for `O=C(N[C@@H](Cc1ccc(-c2ccc(Cl)cc2Cl)cc1)C(=O)O)C1CCCN(C(=O)OC2CCCC2)C1` (some centres unmarked) [Example 1.48], the pIC50 is 5.00 to 5.70. With `O=C(N[C@@H](Cc1ccc(-c2cc(Cl)ccc2Cl)cc1)C(=O)O)C1CCCN(C(=O)Cc2ccccc2)C1` (some centres unmarked) [Example 1.49], the IC50 result is “C-D”.

For `O=C(N[C@@H](Cc1ccc(-c2cc(Cl)ccc2Cl)cc1)C(=O)O)C1CCCN(C(=O)c2cccc(Cl)c2)C1` (some centres unmarked) [Example 1.50], the pIC50 is 5.00 to 5.70. As for `Cc1ccc(C(=O)N2CCCC(C(=O)N[C@@H](Cc3ccc(-c4cc(Cl)ccc4Cl)cc3)C(=O)O)C2)cc1` (some centres unmarked) [Example 1.51], the IC50 result was “C-D”. As for `O=C(N[C@@H](Cc1ccc(-c2cc(Cl)ccc2Cl)cc1)C(=O)O)C1CCCN(C(=O)c2ccc3c(c2)OCO3)C1` (some centres unmarked) [Example 1.52], the IC50 entry is on record as “C-D”.

As to `O=C(N[C@@H](Cc1ccc(-c2cc(Cl)ccc2Cl)cc1)C(=O)O)C1CCCN(C(=O)C2CCCCC2)C1` (some centres unmarked) [Example 1.53], the IC50 result is on record as “C-D”. As for `O=C(N[C@@H](Cc1ccc(-c2cc(Cl)ccc2Cl)cc1)C(=O)O)C1CCCN(C(=O)c2ccccc2Cl)C1` (some centres unmarked) [Example 1.54], the pIC50 is 5.00 to 5.70. `CC1(C)C2CCC1(CS(=O)(=O)N1CCCC(C(=O)N[C@@H](Cc3ccc(-c4ccccc4)cc3)C(=O)O)C1)C(=O)C2` (some centres unmarked) [Example 1.55]: the IC50 result is “C-D”. As for `Cc1ccc(S(=O)(=O)N2CCCC(C(=O)N[C@@H](Cc3ccc(-c4ccccc4)cc3)C(=O)O)C2)cc1` (some centres unmarked) [Example 1.56], the pIC50 was 5.70 to 6.30.

In the case of `COC(=O)c1ccccc1S(=O)(=O)N1CCCC(C(=O)N[C@@H](Cc2ccc(-c3ccccc3)cc2)C(=O)O)C1` (some centres unmarked) [Example 1.57], the IC50 entry is “C-D”. Same read-out and setting: the same measure for `O=C(N[C@@H](Cc1ccc(-c2ccccc2)cc1)C(=O)O)C1CCCN(S(=O)(=O)c2ccc3ccccc3c2)C1` (some centres unmarked) [Example 1.58]: “C-D”; for `O=C(N[C@@H](Cc1ccc(-c2ccccc2)cc1)C(=O)O)C1CCCN(S(=O)(=O)c2c(Cl)cccc2Cl)C1` (some centres unmarked) [Example 1.59]: “C-D”; for `COc1ccc(S(=O)(=O)N2CCCC(C(=O)N[C@@H](Cc3ccc(-c4ccccc4)cc3)C(=O)O)C2)cc1OC` (some centres unmarked) [Example 1.60]: “C-D”. Still for that read-out and setting: the same measure for `O=C(N[C@@H](Cc1ccc(-c2ccccc2)cc1)C(=O)O)C1CCCN(S(=O)(=O)c2ccccc2C(F)(F)F)C1` (some centres unmarked) [Example 1.61]: “C-D”; for `COc1ccc(Cl)cc1S(=O)(=O)N1CCCC(C(=O)N[C@@H](Cc2ccc(-c3ccccc3)cc2)C(=O)O)C1` (some centres unmarked) [Example 1.62]: “C-D”; for `O=C(N[C@@H](Cc1ccc(-c2ccccc2)cc1)C(=O)O)C1CCCN(S(=O)(=O)Cc2ccccc2)C1` (some centres unmarked) [Example 1.63]: “C-D”. Take `O=C(N[C@@H](Cc1ccc(-c2ccccc2)cc1)C(=O)O)C1CCCN(S(=O)(=O)c2cc(Cl)cc(Cl)c2)C1` (some centres unmarked) [Example 1.64]: the IC50 result is recorded as “C-D”. On the same count and under the same terms, for `Cc1ccc(-c2ccc(C[C@H](NC(=O)C3CCCN(S(=O)(=O)CC45CCC(CC4=O)C5(C)C)C3)C(=O)O)cc2)cc1` (some centres unmarked) [Example 1.65] the value was “C-D”. On the same count and under the same terms, the same measure for `Cc1ccc(-c2ccc(C[C@H](NC(=O)C3CCCN(S(=O)(=O)c4ccc(C)cc4)C3)C(=O)O)cc2)cc1` (some centres unmarked) [Example 1.66]: “C-D”; for `COC(=O)c1ccccc1S(=O)(=O)N1CCCC(C(=O)N[C@@H](Cc2ccc(-c3ccc(C)cc3)cc2)C(=O)O)C1` (some centres unmarked) [Example 1.67]: “C-D”. On the same count and under the same terms, for `Cc1ccc(-c2ccc(C[C@H](NC(=O)C3CCCN(S(=O)(=O)c4ccc5ccccc5c4)C3)C(=O)O)cc2)cc1` (some centres unmarked) [Example 1.68] the value was “C-D”; for `Cc1ccc(-c2ccc(C[C@H](NC(=O)C3CCCN(S(=O)(=O)c4c(Cl)cccc4Cl)C3)C(=O)O)cc2)cc1` (some centres unmarked) [Example 1.69], “C-D”; for `COc1ccc(S(=O)(=O)N2CCCC(C(=O)N[C@@H](Cc3ccc(-c4ccc(C)cc4)cc3)C(=O)O)C2)cc1OC` (some centres unmarked) [Example 1.70], “C-D”.

As for `Cc1ccc(-c2ccc(C[C@H](NC(=O)C3CCCN(S(=O)(=O)c4ccccc4C(F)(F)F)C3)C(=O)O)cc2)cc1` (some centres unmarked) [Example 1.71], the IC50 result was “C-D”. On to `COc1ccc(Cl)cc1S(=O)(=O)N1CCCC(C(=O)N[C@@H](Cc2ccc(-c3ccc(C)cc3)cc2)C(=O)O)C1` (some centres unmarked) [Example 1.72], for which the IC50 result is on record as “C-D”. On the same count and under the same terms, the same measure for `Cc1ccc(-c2ccc(C[C@H](NC(=O)C3CCCN(S(=O)(=O)Cc4ccccc4)C3)C(=O)O)cc2)cc1` (some centres unmarked) [Example 1.73]: “C-D”; for `Cc1ccc(-c2ccc(C[C@H](NC(=O)C3CCCN(S(=O)(=O)c4cc(Cl)cc(Cl)c4)C3)C(=O)O)cc2)cc1` (some centres unmarked) [Example 1.74]: “C-D”.

Take `COc1ccc(-c2ccc(C[C@H](NC(=O)C3CCCN(S(=O)(=O)CC45CCC(CC4=O)C5(C)C)C3)C(=O)O)cc2)cc1` (some centres unmarked) [Example 1.75]: the IC50 entry is listed as “C-D”. The same measure, in the same setting: for `COc1ccc(-c2ccc(C[C@H](NC(=O)C3CCCN(S(=O)(=O)c4ccc(C)cc4)C3)C(=O)O)cc2)cc1` (some centres unmarked) [Example 1.76] the value was “C-D”.

For the molecule `COC(=O)c1ccccc1S(=O)(=O)N1CCCC(C(=O)N[C@@H](Cc2ccc(-c3ccc(OC)cc3)cc2)C(=O)O)C1` (some centres unmarked) [Example 1.77], the IC50 result is “C-D”. Still for that read-out and setting: for `COc1ccc(-c2ccc(C[C@H](NC(=O)C3CCCN(S(=O)(=O)c4ccc5ccccc5c4)C3)C(=O)O)cc2)cc1` (some centres unmarked) [Example 1.78] the value was “C-D”; for `COc1ccc(-c2ccc(C[C@H](NC(=O)C3CCCN(S(=O)(=O)c4c(Cl)cccc4Cl)C3)C(=O)O)cc2)cc1` (some centres unmarked) [Example 1.79], “C-D”.
